From patent US10292385B2, “Method for supression of infection by plant virus” (priority 2014, dated 2019) come the findings set out here.

Assay [1] concerns adult whiteflies. The assay is described as follows: Observation of adult whitefly survival after spraying compound A. Particulars: one week after spraying. The class given is in vivo, sweetpotato whiteflies. An excerpt: From the above, it is conceivable that the present invention greatly enhances the effect of suppressing plant virus infection attained by the compound A.
Assay [2] deals with TYLCV. The assay is described as follows: TYLCV infection suppression test on chemical-sprayed cherry tomatoes exposed to viruliferous adult sweetpotato whiteflies (Test Example 1). The class given is in vivo, tomato yellow leaf curl virus (TYLCV). Particulars: for Percentage of TYLCV infection suppressed, Determined value: cherry tomato, 16 plants, PCR and symptom after 30 days. An excerpt: Seedlings of cherry tomatoes (cultivar: ‘YellowPear’) were transferred to small pots and grown until 2- to 2.5-leaf stages. A chemical having been adjusted to a predetermined concentration by dilution was sprayed thereon in a sufficient amount (the amount was such that the chemical solution dripped from the leaves), and the plants on which the diluted chemical has been sprayed were dried under a shielded condition in a greenhouse. In an aluminum-made large test container (length×width×height =68×44×82 cm, the upper surface and four side surfaces thereof are present as mesh surfaces for aeration), 16 pots containing the chemical-sprayed cherry tomatoes were equally arranged, and installation stands for releasing adult sweetpotato whiteflies were arranged at two positions on a diagonal line in the container. Chemical-resistant adult sweetpotato whiteflies to chemicals such as organophosphorus insecticides, carbamate insecticides, synthetic pyrethroid insecticides, ecdysis regulating insecticides, and neonicotinoid insecticides (hereinafter, chemical resistant adult sweetpotato whiteflies is simply referred to as adult sweetpotato whiteflies) were released for 3 days to suck a cherry tomato for TYLCV acquisition, so that the whiteflies were acquired TYLCV. Note that the chemical-resistant sweetpotato whiteflies used were kindly provided from Kumamoto Agricultural Research Center. The cherry tomato leaves were cut out together with the adult sweetpotato whiteflies settled on the infected cherry tomato, and equally left on the two flying sources in the aluminum-made container. After the leaves wither up, the adult sweetpotato whiteflies spontaneously spread inside the test container. The adult sweetpotato whiteflies were equally scattered to the two flying sources such that the number of individuals released was approximately 1 or 2.5 per plant (e.g.: in the case where the number of the adult sweetpotato whitefly individuals is approximately 1 per plant, 8 whiteflies×2 positions=16 whiteflies in the test container). The release period was set to 7 days. In conducting the test, any test chemical was at a practical concentration. […]

As for “glycerin diacetomonolaurate [compound A]”, the “survival of adult whiteflies after spraying” value in assay [1] is given as “adult whiteflies survived one week thereafter”. Further, in assay [2] (1.0 whiteflies/plant, corrected with the untreatment of test plot 5), the “Percentage of TYLCV infection suppressed, Corrected value” is given as “(50.0) %”. Also, the “Percentage of TYLCV infection suppressed, Determined value” in assay [2] (chemical-resistant adult sweetpotato whiteflies released 1.0 whiteflies/plant for 7 days) stood at 62.5%; in assay [2] (chemical-resistant adult sweetpotato whiteflies released 2.5 whiteflies/plant for 7 days), 50.0%. In addition, in assay [2] (whiteflies released for 7 days on sprayed cherry tomato, corrected value compared with theoretical value), the “TYLCV infection suppressing effect (in words)” value was “suppressed to some extent”.
